The subject of data set [1] is retinal pigmental endothelial cells. The settings on record: reported (Kodjikian, et al, 2005; Giuseppe, et al, 2008); cited from earlier work.
For another data set, the system named is serum proteins. The settings on record: in the blood stream; cited from earlier work.
Data set [2] deals with eye with CNV complicated with proliferated retinopathy and atrophy of choroidal circulation. Nature of the data set: Comparison of Na-fluorescein, ICG and FITC-dextran fundus angiography on the eye with proliferative CNV (Example 9, Table 1). In kind it is in vivo, rabbit. The settings on record: for morphological detail of the CNV, proliferated retinopathy and atrophy of choroidal circulation on the angiogram: Dutch-belted rabbit, same eye, Na-fluorescein 5 mg/kg, ICG 2.5 mg/kg, FITC-dextran 70 kDa 2.5 mg/kg i.v.; for Clarity of angiography / Duration: Choroidal neovascularization / Duration: Normal Choroidal vasculatures / Neovascularization complex / Duration: Retinal neovascularization / Duration: Normal retinal vessels: Table 1. The text has this:
Materials and Methods: the choroidal neovascularization in the eye of Dutch-belted rabbit was induced by sub-retinal injection of vascular growth factors (VGF). The proliferated retinopathy of the choroidal neovascularization membrane and the atrophy of choroidal circulation were the complications of the CNV, occurring at the late stage of the disease. […] The fundus angiograms of IGC were obtained using the fundus image system (Topcon 50 VT) at wavelength of 800 nm.

The test system of data set [3] is eye with choroidal neovascularization complicated with retinal detachment. The experiment in a line: Comparison on the eye with CNV complicated with retinal detachment (Example 7). Type of data set: in vivo. The conditions noted are these: rabbit; Na-fluorescein 5 mg/kg i.v.; FITC-dextran 70 kDa 2.5 mg/kg i.v.; same rabbit. The procedure:
Materials and Methods: the choroidal neovascularization in the eye of rabbit was induced by sub-retinal injection of vascular growth factors (VGF). The complicated retinal detachment in the eye was caused by leakage of blood from the choroidal newly grown blood vessels and accumulated in the space of the sub-retinal between the detached retinal and the pigmented layer. […] The Na-fluorescence fundus angiography and the FITC-dextran fundus angiography were performed on the same rabbit with one-day interval between these two fundus angiographies.

For another data set, the system named is fundus. The settings on record: following intravenous injection of the dye; clinical practice; cited from earlier work.
In data set [4] the test system is eye with choroidal neovascularization complicated with sub-retinal hemorrhage. The experiment in a line: Comparison on the eye with CNV complicated with sub-retinal hemorrhage (Example 8). Type of data set: in vivo. The settings on record: rabbit; Na-fluorescein 5 mg/kg i.v.; FITC-dextran 70 kDa 2.5 mg/kg i.v.; same rabbit. The procedure: Materials and Methods: the choroidal neovascularization in the rabbit eye was induced by sub-retinal injection of vascular growth factors (VGF). The sub-retinal hemorrhage was caused by the pathological changes of the newly grown blood vessels underneath of the retinal. […] The Na-fluorescence fundus angiography and the FITC-dextran fundus angiography, were performed on the same rabbit with one-day interval between these two fundus angiographies.

The test system of data set [5] is eye with retinal neovascularization. Nature of the data set: Comparison of FITC-dextran with Na-fluorescein fundus angiography on the eye with retinal neovascularization (Example 10). The settings on record: monkey eye with retinal neovascularization; following injection of the dye.
Method: Materials and Methods: Retinal neovascularization in the eye of the monkey was induced by sub-retinal administration of vascular growth factors (VGF). For Na-fluorescence fundus angiography, the 0.5% of Na-fluorescein solution was injected through the antecubital vein at the dose of 5 mg/kg of the body weight. […] The fundus angiograms were obtained using a regular fluorescence fundus system (Topcon 50 VT).
The test system of data set [6] is eyes with choroidal neovascularization (CNV). The experiment in a line: Comparison of FITC-dextran with Na-fluorescein fundus angiography on eyes with CNV (Example 6). Type of data set: in vivo. The conditions noted are these: rabbit CNV; Na-fluorescein 5 mg/kg i.v.; FITC-dextran 70 kDa 2.5 mg/kg i.v. The text has this:
Materials and Methods: The choroidal neovascularization (CNV) in rabbit eye was induced by sub-retinal injection of vascular growth factors (VGF).

In a further data set the test system is choroidal vasculature. Nature of the data set: Effective image duration of FITC-dextran fundus angiography in rabbit (Example 2). Type of data set: in vivo. The settings on record: Dutch Belted rabbit, single intravenous injection of FITC-dextran 70 kDa, 25 mg/ml, 0.3 ml. The procedure: The volume of 0.3 ml of the solution was injected through the marginal vein of a Dutch Belted rabbit. […] The angiograms of choroidal vasculature were captured using a regular fluorescence fundus image system (Topcon 50 VT).

Data set [7] relates to eye with choroidal neovascularization (CNV). Nature of the data set: FITC-dextran fundus angiography on the eye with choroidal neovascularization (Example 4). The settings on record: pigmented rabbit; CNV induced by sub-retinal vascular growth factors; FITC-dextran 70 kDa, 25 mg/ml, 0.3 ml i.v. In kind it is in vivo. The procedure:
Materials and Methods: The choroidal neovascularization (CNV) was induced by sub-retinal injection of vascular growth factors in the eye of pigmented rabbit. […] The volume of 0.3 ml of the solution was injected through marginal vein of the rabbit.

Data set [8] concerns retinal vasculature and choroidal vasculature. The experiment in a line: FITC-dextran fundus angiography in normal rabbit eyes (Example 1). Type of data set: in vivo. The settings on record: naive rabbit; FITC-dextran 70 kDa, 25 mg/ml, 0.3 ml intravenously. From the text: Materials and Methods: The naive rabbits with bodyweight of 1.8-2.5 kilograms were used for this test.

Data set [9] concerns eye with retinal detachment. The experiment in a line: FITC-dextran fundus angiography in the eye with retinal detachment (Example 3). In kind it is in vivo. The conditions noted are these: pigmented rabbit; detachment induced by sub-retinal Healon; FITC-dextran 70 kDa, 25 mg/ml, 0.3 ml i.v. The procedure:
Materials and Methods: The retinal detachment was induced by sub-retinal injection of Healon in the eye of pigmented rabbit. […] The volume of 0.3 ml of the solution was injected intravenously through the marginal vein of the rabbit.

Where only a bound is given, the exact number is not on record here.

Regarding `CC1(C)C(/C=C/C=C/C=C/C=C2\N(CCCCS(=O)(=O)O)c3ccc4ccccc4c3C2(C)C)=[N+](CCCCS(=O)(=O)[O-])c2ccc3ccccc3c21` [ICG, indocyanine green], in data set [1], the “toxic effects on retinal pigmental endothelial cells and outer portion of the retinal tissues” value is given as “toxic effects”. Moreover, in the data set on serum proteins, the “molecules bound to serum proteins” value is 98%. Moreover, in data set [2], the “morphological detail of the CNV, proliferated retinopathy and atrophy of choroidal circulation on the angiogram” value was “able to visualize the structure of the CNV and the injured choroidal vascular networks”; the Clarity of angiography result is recorded as “poor”; the “Duration: Choroidal neovascularization” value fell in the range of 3 to 5 min; the “Duration: Normal Choroidal vasculatures” value lay in the range of 3 to 5 min. Moreover, the Neovascularization complex entry in data set [2] is “good”.
With `O=C([O-])c1ccccc1-c1c2ccc(=O)cc-2oc2cc([O-])ccc12.[Na+].[Na+]` [Na-Fluorescein, sodium fluorescein], the “morphological detail of the CNV and the retinal detachment on the angiogram” value in data set [3] is “without the morphological details of the CNV and the detachment”. In addition, the “best effective image duration” value in the data set on fundus is listed as “about 5 minutes”. Also, in [4], the “morphological detail of the CNV and the hemorrhage on the angiogram” value is “without the morphological details of the CNV and the hemorrhage”. Besides, the “molecules bound to serum proteins” value in the data set on serum proteins is recorded as 70-80%. Moreover, in data set [2], the “morphological detail of the CNV, proliferated retinopathy and atrophy of choroidal circulation on the angiogram” value is listed as “without morphological details of the CNV”; the Clarity of angiography result is “good”; the Neovascularization complex entry is reported as “poor”. Further, the “Duration: Retinal neovascularization” value in data set [2] (then leak out) is at most 10 s. Besides, the “Duration: Normal retinal vessels” value in data set [2] (then watch out) is listed as 2-5 minutes,. In [5], the effective image duration result is listed as “about two”. Further, the “morphological detail of the CNV on the angiogram” value in data set [6] is “without the morphological detail of the CNV”.
Regarding “fluorescein isothiocyanate dextran [FITC-Dextran]”, the “morphological detail of the CNV and the retinal detachment on the angiogram” value in data set [3] is “the morphological nature of the newly grown vasculature and the detachment of the retina were visualized”. Moreover, the “morphological detail of the CNV and the hemorrhage on the angiogram” value in [4] was “able to provide the morphological nature of the newly grown vasculature complicated with retinal hemorrhage”. In addition, the effective image duration entry with choroidal vasculature is on record as “up to 2 hours”. In data set [2], the “morphological detail of the CNV, proliferated retinopathy and atrophy of choroidal circulation on the angiogram” value was “able to visualize the newly grown blood vessels with details of the CNV”; the Clarity of angiography result was “best”; the “Duration: Choroidal neovascularization” value is over 60 min; the “Duration: Normal Choroidal vasculatures” value is over 60 min. In addition, in [2], the “Duration: Normal retinal vessels” value is over 1 h, the “Duration: Retinal neovascularization” value is over 3600 s and the Neovascularization complex result is recorded as “best”. The “visualization of new blood vessels grown from choroidal” value in data set [7] is recorded as “able to visualize the new blood vessels grown from choroidal”. Besides, the “visualization of retinal vasculature and choroidal vasculature in a same fundus angiogram” value in data set [8] was “able to visualize both retinal vasculature and choroidal vasculature”. Further, the “quality of angiograms of the eye with retinal detachment” value in data set [9] is “super clear and high resolution angiograms”. Also, the “morphological detail of the CNV on the angiogram” value in data set [6] is “detailed morphological information of the newly grown vasculature was revealed”.

These data come from US20130165771A1 (priority 2011, published 2013).
